From ChEMBL document CHEMBL1153245, “A profile of the in vitro anti-tumor activity of imidazolium-based ionic liquids” (2010)

What was measured:
Assay type in all cases: functional
NCI-H23 = experiment: Anticancer activity against human NCI-H23 cells after 48 hrs by sulforhodamine B assay; settings: for CC50: read-out: LC50 (the source's name)
[1] = Anticancer activity against human […] cells after 48 hrs by sulforhodamine B assay; settings: for CC50: read-out: LC50 (the source's name)
SW-620 = experiment: Anticancer activity against human SW620 cells after 48 hrs by sulforhodamine B assay
[2] = Anticancer activity against human Hs 578T cells after 48 hrs by sulforhodamine B assay; settings: for CC50: read-out: LC50 (the source's name)
SK-OV-3 = experiment: Anticancer activity against human SKOV3 cells after 48 hrs by sulforhodamine B assay; settings: for CC50: read-out: LC50 (the source's name)
SNB-19 = experiment: Anticancer activity against human SNB19 cells after 48 hrs by sulforhodamine B assay; settings: for CC50: read-out: LC50 (the source's name)
SN12C = experiment: Anticancer activity against human SN12C cells after 48 hrs by sulforhodamine B assay
K562 = experiment: Anticancer activity against human K562 cells after 48 hrs by sulforhodamine B assay
MDA-MB-435 = experiment: Anticancer activity against human MDA-MB-435 cells after 48 hrs by sulforhodamine B assay; settings: for CC50: read-out: LC50 (the source's name)
NCI-H226 = experiment: Anticancer activity against human NCI-H226 cells after 48 hrs by sulforhodamine B assay
PC-3 = experiment: Anticancer activity against human PC3 cells after 48 hrs by sulforhodamine B assay; settings: for CC50: read-out: LC50 (the source's name)
SK-MEL-5 = experiment: Anticancer activity against human SK-MEL-5 cells after 48 hrs by sulforhodamine B assay; settings: for CC50: read-out: LC50 (the source's name)
ACHN = experiment: Anticancer activity against human ACHN cells after 48 hrs by sulforhodamine B assay
HCC 2998 = experiment: Anticancer activity against human HCC2998 cells after 48 hrs by sulforhodamine B assay; settings: for CC50: read-out: LC50 (the source's name)
T47D = experiment: Anticancer activity against human T47D cells after 48 hrs by sulforhodamine B assay
SF-268 = experiment: Anticancer activity against human SF268 cells after 48 hrs by sulforhodamine B assay; settings: for CC50: read-out: LC50 (the source's name)
SF-295 = experiment: Anticancer activity against human SF295 cells after 48 hrs by sulforhodamine B assay; settings: for CC50: read-out: LC50 (the source's name)
DU-145 = experiment: Anticancer activity against human DU145 cells after 48 hrs by sulforhodamine B assay; settings: for CC50: read-out: LC50 (the source's name)
SNB-75 = experiment: Anticancer activity against human SNB75 cells after 48 hrs by sulforhodamine B assay; settings: for CC50: read-out: LC50 (the source's name)
Malme-3M = experiment: Anticancer activity against human MALME-3M cells after 48 hrs by sulforhodamine B assay
RXF 393 = experiment: Anticancer activity against human RXF393 cells after 48 hrs by sulforhodamine B assay
SK-MEL-28 = experiment: Anticancer activity against human SK-MEL-28 cells after 48 hrs by sulforhodamine B assay
HL-60(TB) = experiment: Anticancer activity against human HL-60(TB) cells after 48 hrs by sulforhodamine B assay; settings: for CC50: read-out: LC50 (the source's name)
HT-29 = experiment: Anticancer activity against human HT-29 cells after 48 hrs by sulforhodamine B assay; settings: for CC50: read-out: LC50 (the source's name)
EKVX = experiment: Anticancer activity against human EKVX cells after 48 hrs by sulforhodamine B assay; settings: for CC50: read-out: LC50 (the source's name)
A498 = experiment: Anticancer activity against human A498 cells after 48 hrs by sulforhodamine B assay; settings: for CC50: read-out: LC50 (the source's name)
NCI-H460 = experiment: Anticancer activity against human NCI-H460 cells after 48 hrs by sulforhodamine B assay
CCRF-CEM = experiment: Anticancer activity against human CCRF-CEM cells after 48 hrs by sulforhodamine B assay
U-251 = experiment: Anticancer activity against human U251 cells after 48 hrs by sulforhodamine B assay; settings: for CC50: read-out: LC50 (the source's name)
MOLT-4 = experiment: Anticancer activity against human MOLT4 cells after 48 hrs by sulforhodamine B assay
SF-539 = experiment: Anticancer activity against human SF539 cells after 48 hrs by sulforhodamine B assay; settings: Homo sapiens, SF-539, 48 h

## CCCCCCCCCCCCCCCCCC[n+]1ccn(C)c1.F[P-](F)(F)(F)(F)F
NCI-H23
  GI50: 0.424 µM
  CC50: 7.98 µM
[1]
  GI50: 0.017 µM
  CC50: 0.811 µM
SW-620
  GI50: 0.519 µM
  LC50: 4.32 µM
[2]
  GI50: 0.536 µM
  CC50: 6.15 µM
SK-OV-3
  GI50: 1.81 µM
  CC50: 4.2 µM
SNB-19
  GI50: 1.45 µM
  CC50: 7.89 µM
SN12C
  GI50: 1.2 µM
  LC50: 5.28 µM
K562
  GI50: 0.935 µM
MDA-MB-435
  GI50: 0.851 µM
  CC50: 6.64 µM
NCI-H226
  GI50: 1.17 µM
  LC50: 5.74 µM
PC-3
  GI50: 0.286 µM
  CC50: 3.54 µM
SK-MEL-5
  GI50: 0.617 µM
  CC50: 4.37 µM
ACHN
  GI50: 0.934 µM
  LC50: 4.62 µM
HCC 2998
  GI50: 0.293 µM
  CC50: 5.87 µM
T47D
  GI50: 0.719 µM
SF-268
  GI50: 1.26 µM
  CC50: 6.06 µM
SF-295
  GI50: 0.503 µM
  CC50: 6.02 µM
DU-145
  GI50: 1.02 µM
  CC50: 4.68 µM
SNB-75
  GI50: 0.991 µM
  CC50: 6.5 µM
Malme-3M
  GI50: 1.02 µM
  LC50 (concentration killing 50% of cells): 7.69 µM
RXF 393
  GI50: 0.467 µM
  LC50: 5.98 µM
SK-MEL-28
  LC50: 5.16 µM
HL-60(TB)
  GI50: 0.185 µM
  CC50: > 100 µM
HT-29
  GI50: 0.408 µM
  CC50: > 100 µM
EKVX
  GI50: 1.12 µM
  CC50: 7.64 µM
A498
  GI50: 1.15 µM
  CC50: 7.55 µM
NCI-H460
  GI50: 0.636 µM
  LC50: 4.38 µM
CCRF-CEM
  GI50: 0.129 µM
  LC50: 0.98 µM
U-251
  GI50: 0.482 µM
  CC50: 4.2 µM
MOLT-4
  GI50: 0.589 µM
  LC50: > 100 µM

## CCCCCCCCCCCC[n+]1ccn(C)c1.[Cl-]
NCI-H23
  GI50: 0.885 µM
NCI-H23; Homo sapiens, NCI-H23, 48 h
  CC50: > 100 µM
[1]
  GI50: 0.109 µM
[1]; Homo sapiens, RPMI8266, 48 h
  CC50: 6.13 µM
SW-620
  GI50: 2.97 µM
[2]; Homo sapiens, Hs-578T, 48 h
  GI50: 3.13 µM
  CC50: > 100 µM
SK-OV-3; Homo sapiens, SK-OV-3, 48 h
  GI50: 4.76 µM
  CC50: > 100 µM
SNB-19; Homo sapiens, SNB-19, 48 h
  GI50: 6.76 µM
  CC50: > 100 µM
SN12C; Homo sapiens, SN12C, 48 h
  GI50: 2.76 µM
K562; Homo sapiens, K562, 48 h
  GI50: 0.498 µM
K562; Homo sapiens, K562, 48 h, read-out: LC50 (the source's name)
  CC50: > 100 µM
MDA-MB-435; Homo sapiens, MDA-MB-435, 48 h
  GI50: 1.79 µM
  CC50: 69.1 µM
NCI-H226; Homo sapiens, NCI-H226, 48 h
  GI50: 3.55 µM
PC-3; Homo sapiens, PC-3, 48 h
  GI50: 1.82 µM
  CC50: > 100 µM
SK-MEL-5; Homo sapiens, SK-MEL-5, 48 h
  GI50: 1.22 µM
SK-MEL-5
  CC50: 7.8 µM
ACHN; Homo sapiens, ACHN, 48 h
  GI50: 7.24 µM
HCC 2998
  GI50: 1.89 µM
HCC 2998; Homo sapiens, HCC 2998, 48 h
  CC50: > 100 µM
T47D; Homo sapiens, T47D, 48 h
  GI50: 4.29 µM
T47D; Homo sapiens, T47D, 48 h, read-out: LC50 (the source's name)
  CC50: > 100 µM
SF-268; Homo sapiens, SF-268, 48 h
  GI50: 4.68 µM
  CC50: > 100 µM
SF-295; Homo sapiens, SF-295, 48 h
  GI50: 2.36 µM
  CC50: > 100 µM
SF-539
  GI50: 2.72 µM
DU-145
  GI50: 0.688 µM
DU-145; Homo sapiens, DU-145, 48 h
  CC50: > 100 µM
SNB-75; Homo sapiens, SNB-75, 48 h
  GI50: 2.74 µM
  CC50: 56.8 µM
Malme-3M; Homo sapiens, Malme-3M, 48 h
  GI50: 4.96 µM
RXF 393; Homo sapiens, RXF 393, 48 h
  GI50: 5.9 µM
SK-MEL-28
  GI50: 4.57 µM
HL-60(TB); Homo sapiens, HL-60, 48 h
  GI50: 0.331 µM
  CC50: 7.78 µM
HT-29; Homo sapiens, HT-29, 48 h
  GI50: 2.6 µM
  CC50: > 100 µM
EKVX; Homo sapiens, EKVX, 48 h
  GI50: 0.873 µM
  CC50: > 100 µM
A498; Homo sapiens, A498, 48 h
  GI50: 4.28 µM
  CC50: > 100 µM
NCI-H460; Homo sapiens, NCI-H460, 48 h
  GI50: 3.39 µM
CCRF-CEM
  GI50: 0.54 µM
U-251; Homo sapiens, U-251, 48 h
  GI50: 2.15 µM
  CC50: > 100 µM
MOLT-4; Homo sapiens, MOLT-4, 48 h
  GI50: 2.9 µM
